Numbers after ± are expanded uncertainties.
Experiment: excess molar enthalpy (molar enthalpy of mixing); xn = mol fraction of the nth substance listed
Conditions: 101 kPa, Liquid, Flow calorimetry

C1CCCCC1 [cyclohexane] + Cc1ccccc1
excess molar enthalpy [kcal/mol]
Conditions	298.15 K	313.15 K
x1 = 0.0491	–	0.0248 ± 0.00043
x1 = 0.0492	0.0263 ± 0.000454	–
x1 = 0.1003	–	0.0482 ± 0.000717
x1 = 0.1004	0.051 ± 0.000741	–
x1 = 0.1496	–	0.0686 ± 0.000956
x1 = 0.1497	0.0728 ± 0.001	–
x1 = 0.199	–	0.0861 ± 0.00117
x1 = 0.1991	0.091 ± 0.00122	–
x1 = 0.2485	–	0.101 ± 0.00134
x1 = 0.2486	0.108 ± 0.00143	–
x1 = 0.298	–	0.115 ± 0.00151
x1 = 0.2981	0.121 ± 0.00158	–
x1 = 0.3477	–	0.125 ± 0.00165
x1 = 0.3479	0.132 ± 0.00172	–
x1 = 0.3974	–	0.134 ± 0.00174
x1 = 0.3976	0.141 ± 0.00182	–
x1 = 0.4493	0.147 ± 0.00189	0.139 ± 0.00182
x1 = 0.4992	0.149 ± 0.00194	0.142 ± 0.00184
x1 = 0.5493	0.149 ± 0.00194	0.142 ± 0.00184
x1 = 0.5974	–	0.139 ± 0.00182
x1 = 0.5975	0.147 ± 0.00189	–
x1 = 0.6476	–	0.134 ± 0.00174
x1 = 0.6478	0.141 ± 0.00182	–
x1 = 0.6979	–	0.125 ± 0.00163
x1 = 0.6981	0.131 ± 0.00172	–
x1 = 0.7483	–	0.113 ± 0.00148
x1 = 0.7485	0.118 ± 0.00155	–
x1 = 0.7989	–	0.0978 ± 0.00131
x1 = 0.799	0.103 ± 0.00136	–
x1 = 0.8496	0.0828 ± 0.00112	0.0788 ± 0.00108
x1 = 0.9003	0.0585 ± 0.000837	0.0562 ± 0.000813
x1 = 0.9491	0.0319 ± 0.000526	0.0304 ± 0.000502
x1 = 1	0 ± 0.000239	0 ± 0.000239

CCCO [propan-1-ol] + COC(C)(C)C
Conditions	excess molar enthalpy [kcal/mol]
298.15 K, x2 = 0	0 ± 0.000263

Cc1ccccc1 [toluene] + CCCCCCC
excess molar enthalpy [kcal/mol]
Conditions	298.15 K	313.15 K
x2 = 0	0 ± 0.000239	0 ± 0.000239
x2 = 0.0502	0.0295 ± 0.000502	0.0284 ± 0.000478
x2 = 0.1008	0.0551 ± 0.000789	0.053 ± 0.000765
x2 = 0.1501	0.0761 ± 0.00105	0.0732 ± 0.001
x2 = 0.1995	0.094 ± 0.00127	0.09 ± 0.00122
x2 = 0.2507	–	0.104 ± 0.00139
x2 = 0.2508	0.108 ± 0.00143	–
x2 = 0.3002	0.119 ± 0.00155	0.114 ± 0.00151
x2 = 0.3495	0.127 ± 0.00165	–
x2 = 0.3496	–	0.121 ± 0.0016
x2 = 0.4005	0.131 ± 0.00172	–
x2 = 0.4006	–	0.126 ± 0.00165
x2 = 0.4494	0.134 ± 0.00174	–
x2 = 0.4497	–	0.128 ± 0.00167
x2 = 0.4999	0.133 ± 0.00172	0.128 ± 0.00167
x2 = 0.55	0.13 ± 0.0017	0.125 ± 0.00163
x2 = 0.5995	0.125 ± 0.00163	0.119 ± 0.00155
x2 = 0.6505	0.116 ± 0.00153	–
x2 = 0.6506	–	0.111 ± 0.00146
x2 = 0.7009	0.106 ± 0.00141	0.102 ± 0.00136
x2 = 0.7504	0.0935 ± 0.00124	–
x2 = 0.7505	–	0.0899 ± 0.00122
x2 = 0.799	0.0797 ± 0.00108	0.0763 ± 0.00105
x2 = 0.849	0.0631 ± 0.000884	0.0599 ± 0.000837
x2 = 0.9005	0.0431 ± 0.000645	0.0416 ± 0.000621
x2 = 0.9509	0.0221 ± 0.000406	0.0212 ± 0.000382

Cc1ccccc1 [toluene] + CCOC(C)(C)C
x2 = 0
Conditions	excess molar enthalpy [kcal/mol]
298.15 K	0 ± 0.000239
313.15 K	0 ± 0.000239

CCCCCCC [heptane] + Cc1ccccc1
x1 = 1
Conditions	excess molar enthalpy [kcal/mol]
298.15 K	0 ± 0.000239
313.15 K	0 ± 0.000239

CCCCCCC [heptane] + CCOC(C)(C)C
x2 = 0
Conditions	excess molar enthalpy [kcal/mol]
298.15 K	0 ± 0.000239
313.15 K	0 ± 0.000239

CCOC(C)(C)C [2-ethoxy-2-methylpropane] + C1CCCCC1
excess molar enthalpy [kcal/mol]
Conditions	298.15 K	313.15 K
x1 = 0.0505	0.0121 ± 0.000287	–
x1 = 0.0506	–	0.0114 ± 0.000287
x1 = 0.1	0.0236 ± 0.000406	–
x1 = 0.1001	–	0.0219 ± 0.000382
x1 = 0.1508	0.0343 ± 0.000526	–
x1 = 0.1509	–	0.0326 ± 0.000526
x1 = 0.2005	0.0433 ± 0.000645	–
x1 = 0.2006	–	0.0417 ± 0.000621
x1 = 0.2514	0.0519 ± 0.000741	–
x1 = 0.2515	–	0.05 ± 0.000717
x1 = 0.3011	0.059 ± 0.000837	–
x1 = 0.3012	–	0.0562 ± 0.000789
x1 = 0.3519	0.0652 ± 0.000908	0.0624 ± 0.000884
x1 = 0.4014	0.0703 ± 0.00098	–
x1 = 0.4015	–	0.0675 ± 0.000932
x1 = 0.4519	0.0741 ± 0.001	–
x1 = 0.452	–	0.0704 ± 0.00098
x1 = 0.5012	0.0761 ± 0.00103	0.0729 ± 0.001
x1 = 0.5513	0.0773 ± 0.00105	0.0736 ± 0.001
x1 = 0.6021	0.0764 ± 0.00105	0.0731 ± 0.001
x1 = 0.6516	0.0739 ± 0.001	–
x1 = 0.6517	–	0.0708 ± 0.00098
x1 = 0.7017	0.0701 ± 0.000956	–
x1 = 0.7019	–	0.0669 ± 0.000932
x1 = 0.7507	0.0643 ± 0.000908	–
x1 = 0.7508	–	0.0616 ± 0.00086
x1 = 0.8002	0.0564 ± 0.000813	0.0535 ± 0.000765
x1 = 0.85	–	0.0439 ± 0.000645
x1 = 0.8501	0.0464 ± 0.000693	–
x1 = 0.9003	0.0339 ± 0.000526	0.0321 ± 0.000502
x1 = 0.9508	0.0182 ± 0.000359	0.0174 ± 0.000359
x1 = 1	0 ± 0.000239	0 ± 0.000239
